According to ChEMBL document CHEMBL4002643, “Tubulin-binding dibenz[c,e]oxepines: Part 2. Structural variation and biological evaluation as tumour vasculature disrupting agents” (Bioorg Med Chem, 2017):

Key:
BT-549 = experiment: Cytotoxicity against human BT549 cells assessed as growth inhibition after 48 hrs by SRB assay; format: functional; conditions: BT-549, 48 h
T47D = experiment: Cytotoxicity against human T47D cells assessed as growth inhibition after 48 hrs by SRB assay; format: functional
A498 = experiment: Cytotoxicity against human A498 cells assessed as growth inhibition after 48 hrs by SRB assay; format: functional; conditions: A498, 48 h
A549 = experiment: Cytotoxicity against human A549 cells assessed as growth inhibition after 48 hrs by SRB assay; format: functional; conditions: A549, 48 h
786-0 = experiment: Cytotoxicity against human 786-0 cells assessed as growth inhibition after 48 hrs by SRB assay; format: functional; conditions: 786-0, 48 h
OVCAR-8 = experiment: Cytotoxicity against human OVCAR8 cells assessed as growth inhibition after 48 hrs by SRB assay; format: functional; conditions: OVCAR-8, 48 h
NCI/ADR-RES = experiment: Cytotoxicity against human NCI-ADR-RES cells assessed as growth inhibition after 48 hrs by SRB assay; format: functional
KM12 = experiment: Cytotoxicity against human KM12 cells assessed as growth inhibition after 48 hrs by SRB assay; format: functional; conditions: KM12, 48 h
SK-MEL-2 = experiment: Cytotoxicity against human SK-MEL-2 cells assessed as growth inhibition after 48 hrs by SRB assay; format: functional; conditions: SK-MEL-2, 48 h
NCI-H23 = experiment: Cytotoxicity against human NCI-H23 cells assessed as growth inhibition after 48 hrs by SRB assay; format: functional; conditions: NCI-H23, 48 h
SW-620 = experiment: Cytotoxicity against human SW620 cells assessed as growth inhibition after 48 hrs by SRB assay; format: functional; conditions: SW-620, 48 h
K562 [1] = experiment: Cytotoxicity against human K562 cells assessed as growth inhibition after 5 days by MTT assay; format: functional, cell-based; conditions: K562, 120 h
SK-MEL-28 = experiment: Cytotoxicity against human SK-MEL-28 cells assessed as growth inhibition after 48 hrs by SRB assay; format: functional; conditions: SK-MEL-28, 48 h
MCF7 = experiment: Cytotoxicity against human MCF7 cells assessed as growth inhibition after 48 hrs by SRB assay; format: functional; conditions: MCF7, 48 h
HCT-116 = experiment: Cytotoxicity against human HCT116 cells assessed as growth inhibition after 48 hrs by SRB assay; format: functional; conditions: HCT-116, 48 h
HCT-15 = experiment: Cytotoxicity against human HCT15 cells assessed as growth inhibition after 48 hrs by SRB assay; format: functional; conditions: HCT-15, 48 h
K562 [2] = experiment: Cytotoxicity against human K562 cells assessed as growth inhibition after 48 hrs by SRB assay; format: functional; conditions: K562, 48 h
NCI-H322M = experiment: Cytotoxicity against human NCI-H322M cells assessed as growth inhibition after 48 hrs by SRB assay; format: functional
SF-295 = experiment: Cytotoxicity against human SF295 cells assessed as growth inhibition after 48 hrs by SRB assay; format: functional; conditions: SF-295, 48 h
MOLT-4 = experiment: Cytotoxicity against human MOLT4 cells assessed as growth inhibition after 48 hrs by SRB assay; format: functional; conditions: MOLT-4, 48 h
HOP-62 = experiment: Cytotoxicity against human HOP62 cells assessed as growth inhibition after 48 hrs by SRB assay; format: functional; conditions: HOP-62, 48 h
UACC-257 = experiment: Cytotoxicity against human UACC257 cells assessed as growth inhibition after 48 hrs by SRB assay; format: functional; conditions: UACC-257, 48 h
NCI-H522 = experiment: Cytotoxicity against human NCI-H522 cells assessed as growth inhibition after 48 hrs by SRB assay; format: functional; conditions: NCI-H522, 48 h
RPMI-8226 = experiment: Cytotoxicity against human RPMI8226 cells assessed as growth inhibition after 48 hrs by SRB assay; format: functional; conditions: RPMI-8226, 48 h
HCC 2998 = experiment: Cytotoxicity against human HCC2998 cells assessed as growth inhibition after 48 hrs by SRB assay; format: functional; conditions: HCC 2998, 48 h
Hs-578T = experiment: Cytotoxicity against human Hs 578T cells assessed as growth inhibition after 48 hrs by SRB assay; format: functional
SF-539 = experiment: Cytotoxicity against human SF539 cells assessed as growth inhibition after 48 hrs by SRB assay; format: functional; conditions: SF-539, 48 h
SR = experiment: Cytotoxicity against human SR cells assessed as growth inhibition after 48 hrs by SRB assay; format: functional
SK-MEL-5 = experiment: Cytotoxicity against human SK-MEL-5 cells assessed as growth inhibition after 48 hrs by SRB assay; format: functional; conditions: SK-MEL-5, 48 h
[3] = Inhibition of porcine tubulin assembly measured for 30 mins by UV/visible spectrophotometric method; design: species or system Sus scrofa
U-251 = experiment: Cytotoxicity against human U251 cells assessed as growth inhibition after 48 hrs by SRB assay; format: functional; conditions: U-251, 48 h
SF-268 = experiment: Cytotoxicity against human SF268 cells assessed as growth inhibition after 48 hrs by SRB assay; format: functional; conditions: SF-268, 48 h
HL-60(TB) = experiment: Cytotoxicity against human HL-60(TB) cells assessed as growth inhibition after 48 hrs by SRB assay; format: functional; conditions: HL-60, 48 h
IGROV-1 = experiment: Cytotoxicity against human IGROV1 cells assessed as growth inhibition after 48 hrs by SRB assay; format: functional; conditions: IGROV-1, 48 h
SNB-19 = experiment: Cytotoxicity against human SNB19 cells assessed as growth inhibition after 48 hrs by SRB assay; format: functional; conditions: SNB-19, 48 h
UACC-62 = experiment: Cytotoxicity against human UACC62 cells assessed as growth inhibition after 48 hrs by SRB assay; format: functional; conditions: UACC-62, 48 h
MDA-MB-231 = experiment: Cytotoxicity against human MDA-MB-231 cells assessed as growth inhibition after 48 hrs by SRB assay; format: functional; conditions: MDA-MB-231, 48 h
SK-OV-3 = experiment: Cytotoxicity against human SKOV3 cells assessed as growth inhibition after 48 hrs by SRB assay; format: functional; conditions: SK-OV-3, 48 h
COLO 205 = experiment: Cytotoxicity against human COLO205 cells assessed as growth inhibition after 48 hrs by SRB assay; format: functional; conditions: COLO 205, 48 h
RXF 393 = experiment: Cytotoxicity against human RXF393 cells assessed as growth inhibition after 48 hrs by SRB assay; format: functional; conditions: RXF 393, 48 h
UO-31 = experiment: Cytotoxicity against human UO31 cells assessed as growth inhibition after 48 hrs by SRB assay; format: functional; conditions: UO-31, 48 h
SN12C = experiment: Cytotoxicity against human SN12C cells assessed as growth inhibition after 48 hrs by SRB assay; format: functional
LOX IMVI = experiment: Cytotoxicity against human LOXIMVI cells assessed as growth inhibition after 48 hrs by SRB assay; format: functional
NCI-H226 = experiment: Cytotoxicity against human NCI-H226 cells assessed as growth inhibition after 48 hrs by SRB assay; format: functional; conditions: NCI-H226, 48 h
PC-3 = experiment: Cytotoxicity against human PC3 cells assessed as growth inhibition after 48 hrs by SRB assay; format: functional; conditions: PC-3, 48 h
SNB-75 = experiment: Cytotoxicity against human SNB75 cells assessed as growth inhibition after 48 hrs by SRB assay; format: functional; conditions: SNB-75, 48 h

COc1ccc2c(c1O)COCc1cc(OC)c(OC)c(OC)c1-2
GI50 (BT-549): 260 nM | GI50 (T47D): 33900 nM | GI50 (A498): 3020 nM | GI50 (A549): 350 nM | GI50 (786-0): 430 nM | GI50 (OVCAR-8): 200 nM | GI50 (NCI/ADR-RES): 50 nM | GI50 (KM12): 50 nM | GI50 (SK-MEL-2): 260 nM | GI50 (NCI-H23): 760 nM | GI50 (SW-620): 50 nM | IC50 (K562 [1]): 34000 nM | GI50 (SK-MEL-28): 1580 nM | GI50 (MCF7): 70 nM | GI50 (HCT-116): 320 nM | GI50 (HCT-15): 80 nM | GI50 (K562 [2]): 40 nM | GI50 (NCI-H322M): 520 nM | GI50 (SF-295): 270 nM | GI50 (MOLT-4): 60 nM | GI50 (HOP-62): 630 nM | GI50 (UACC-257): > 100000 nM | GI50 (NCI-H522): 40 nM | GI50 (RPMI-8226): 320 nM | GI50 (HCC 2998): 320 nM | GI50 (Hs-578T): 40 nM | GI50 (SF-539): 50 nM | GI50 (SR): 40 nM | GI50 (SK-MEL-5): 40 nM | IC50 [3]: 2200 nM | GI50 (U-251): 300 nM | GI50 (SF-268): 90 nM | GI50 (HL-60(TB)): 30 nM | GI50 (IGROV-1): 630 nM | GI50 (SNB-19): 140 nM | GI50 (UACC-62): 1000 nM | GI50 (MDA-MB-231): 270 nM | GI50 (SK-OV-3): 70 nM | GI50 (COLO 205): 500 nM | GI50 (RXF 393): 40 nM | GI50 (UO-31): 14500 nM | GI50 (SN12C): 210 nM | GI50 (LOX IMVI): 80 nM | GI50 (NCI-H226): 3470 nM | GI50 (PC-3): 280 nM | GI50 (SNB-75): 70 nM

COc1ccc2c(c1OP(=O)([O-])[O-])COCc1cc(OC)c(OC)c(OC)c1-2.[Na+].[Na+]
GI50 (BT-549): 2240 nM | GI50 (T47D): 8510 nM | GI50 (A498): 18600 nM | GI50 (A549): 420 nM | GI50 (786-0): 720 nM | GI50 (OVCAR-8): 420 nM | GI50 (NCI/ADR-RES): 280 nM | GI50 (KM12): 300 nM | GI50 (SK-MEL-2): 5370 nM | GI50 (NCI-H23): 710 nM | GI50 (SW-620): 400 nM | IC50 (K562 [1]): 230 nM | GI50 (SK-MEL-28): 890 nM | GI50 (MCF7): 400 nM | GI50 (HCT-116): 430 nM | GI50 (HCT-15): 440 nM | GI50 (K562 [2]): 280 nM | GI50 (NCI-H322M): 1320 nM | GI50 (SF-295): 320 nM | GI50 (MOLT-4): 400 nM | GI50 (HOP-62): 790 nM | GI50 (UACC-257): 4680 nM | GI50 (NCI-H522): 300 nM | GI50 (RPMI-8226): 460 nM | GI50 (HCC 2998): 420 nM | GI50 (Hs-578T): 240 nM | GI50 (SF-539): 330 nM | GI50 (SR): 190 nM | GI50 (SK-MEL-5): 260 nM | IC50 [3]: 1400 nM | GI50 (U-251): 480 nM | GI50 (SF-268): 790 nM | GI50 (HL-60(TB)): 320 nM | GI50 (IGROV-1): 4070 nM | GI50 (SNB-19): 510 nM | GI50 (UACC-62): 5500 nM | GI50 (MDA-MB-231): 710 nM | GI50 (SK-OV-3): 400 nM | GI50 (COLO 205): 620 nM | GI50 (RXF 393): 210 nM | GI50 (UO-31): 19500 nM | GI50 (SN12C): 720 nM | GI50 (LOX IMVI): 660 nM | GI50 (NCI-H226): 2820 nM | GI50 (PC-3): 560 nM | GI50 (SNB-75): 540 nM
